Measured values from PubChem BioAssay AID2060507 (Molecular Pharmacology Branch, DTP, NCI, 2025).

Test system: 519858-162-T-J1-PDC complex spheroid viability
Assay: Anticancer human tumor 519858-162-T-J1-PDC patient-derived colon adenocarcinoma cell line growth inhibition [GQUAD]
Settings: for IC50: curve of first compound; for viability, T/C: stronger effect = lower value
How it was run: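 Viability of tumor cells grown as complex spheroids with endothelial and stromal cells, exposed to drug combinations. Top concentration at or near clinical Cmax (else 10 microM), diluted in half-log increments.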

[1] = second compound 0.0316 µM, first compound 0.0316 µM
[2] = second compound 0.0316 µM, first compound 0.1 µM
[3] = second compound 0.0316 µM, first compound 0.316 µM
[4] = second compound 0.0316 µM, first compound 1 µM
[5] = second compound 0.0316 µM, first compound 3.16 µM
[6] = second compound 0.0316 µM, first compound 10 µM
[7] = second compound 0.1 µM, first compound 0.0316 µM
[8] = second compound 0.1 µM, first compound 0.1 µM
[9] = second compound 0.1 µM, first compound 0.316 µM
[10] = second compound 0.1 µM, first compound 1 µM
[11] = second compound 0.1 µM, first compound 3.16 µM
[12] = second compound 0.1 µM, first compound 10 µM
[13] = second compound 0.316 µM, first compound 0.0316 µM
[14] = second compound 0.316 µM, first compound 0.1 µM
[15] = second compound 0.316 µM, first compound 0.316 µM
[16] = second compound 0.316 µM, first compound 1 µM
[17] = second compound 0.316 µM, first compound 3.16 µM
[18] = second compound 0.316 µM, first compound 10 µM
[19] = second compound 1 µM, first compound 0.0316 µM
[20] = second compound 1 µM, first compound 0.1 µM
[21] = second compound 1 µM, first compound 0.316 µM
[22] = second compound 1 µM, first compound 1 µM
[23] = second compound 1 µM, first compound 3.16 µM
[24] = second compound 1 µM, first compound 10 µM
[25] = second compound 3.16 µM, first compound 0.0316 µM
[26] = second compound 3.16 µM, first compound 0.1 µM
[27] = second compound 3.16 µM, first compound 0.316 µM
[28] = second compound 3.16 µM, first compound 1 µM
[29] = second compound 3.16 µM, first compound 3.16 µM
[30] = second compound 3.16 µM, first compound 10 µM
[31] = second compound 10 µM, first compound 0.0316 µM
[32] = second compound 10 µM, first compound 0.1 µM
[33] = second compound 10 µM, first compound 0.316 µM
[34] = second compound 10 µM, first compound 1 µM
[35] = second compound 10 µM, first compound 3.16 µM
[36] = second compound 10 µM, first compound 10 µM
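Wherever viability, T/C is given: 100% = DMSO vehicle control viability.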

## CC1COCCN1c1cc(-c2ccnn2C)c2ccnc(-c3ccn[nH]3)c2n1 (stereo unspecified) + CN(C)c1ccc(Nc2c3ccc(NC(=O)CCN4CCCC4)cc3nc3cc(NC(=O)CCN4CCCC4)ccc23)cc1
Second compound 0.0316 µM
  IC50: 4.24 µM
Second compound 0.1 µM
  IC50: 4.35 µM
Second compound 0.316 µM
  IC50: 7.09 µM
Second compound 1 µM
  IC50: 4.74 µM
Second compound 3.16 µM
  IC50: 5.33 µM
Second compound 10 µM
  IC50: 4.46 µM
[1]
  viability, T/C: 87.2%
[2]
  viability, T/C: 125%
[3]
  viability, T/C: 88%
[4]
  viability, T/C: 101%
[5]
  viability, T/C: 54%
[6]
  viability, T/C: 38%
[7]
  viability, T/C: 78.2%
[8]
  viability, T/C: 106%
[9]
  viability, T/C: 86.4%
[10]
  viability, T/C: 124%
[11]
  viability, T/C: 55.4%
[12]
  viability, T/C: 36.1%
[13]
  viability, T/C: 91.3%
[14]
  viability, T/C: 86.8%
[15]
  viability, T/C: 79.3%
[16]
  viability, T/C: 101%
[17]
  viability, T/C: 79.6%
[18]
  viability, T/C: 37.4%
[19]
  viability, T/C: 100%
[20]
  viability, T/C: 85.7%
[21]
  viability, T/C: 73.8%
[22]
  viability, T/C: 102%
[23]
  viability, T/C: 63.4%
[24]
  viability, T/C: 25.3%
[25]
  viability, T/C: 87.5%
[26]
  viability, T/C: 83.9%
[27]
  viability, T/C: 106%
[28]
  viability, T/C: 92.4%
[29]
  viability, T/C: 58.7%
[30]
  viability, T/C: 39.5%
[31]
  viability, T/C: 71.2%
[32]
  viability, T/C: 101%
[33]
  viability, T/C: 73.5%
[34]
  viability, T/C: 100%
[35]
  viability, T/C: 51.1%
[36]
  viability, T/C: 47.3%

## CC1COCCN1c1cc(C2(S(C)(=N)=O)CC2)nc(-c2ccnc3[nH]ccc23)n1 (stereo unspecified) + CN(C)c1ccc(Nc2c3ccc(NC(=O)CCN4CCCC4)cc3nc3cc(NC(=O)CCN4CCCC4)ccc23)cc1
Second compound 0.0316 µM
  IC50: > 10 µM
Second compound 0.1 µM
  IC50: > 10 µM
Second compound 0.316 µM
  IC50: > 10 µM
Second compound 1 µM
  IC50: > 10 µM
Second compound 3.16 µM
  IC50: > 10 µM
Second compound 10 µM
  IC50: > 10 µM
[1]
  viability, T/C: 115%
[2]
  viability, T/C: 102%
[3]
  viability, T/C: 119%
[4]
  viability, T/C: 115%
[5]
  viability, T/C: 98.3%
[6]
  viability, T/C: 77.7%
[7]
  viability, T/C: 133%
[8]
  viability, T/C: 124%
[9]
  viability, T/C: 125%
[10]
  viability, T/C: 110%
[11]
  viability, T/C: 94.2%
[12]
  viability, T/C: 70%
[13]
  viability, T/C: 123%
[14]
  viability, T/C: 108%
[15]
  viability, T/C: 81.1%
[16]
  viability, T/C: 79.7%
[17]
  viability, T/C: 91.1%
[18]
  viability, T/C: 100%
[19]
  viability, T/C: 88.2%
[20]
  viability, T/C: 88.3%
[21]
  viability, T/C: 90.8%
[22]
  viability, T/C: 105%
[23]
  viability, T/C: 86.5%
[24]
  viability, T/C: 100%
[25]
  viability, T/C: 93.3%
[26]
  viability, T/C: 60.1%
[27]
  viability, T/C: 93.9%
[28]
  viability, T/C: 111%
[29]
  viability, T/C: 84.8%
[30]
  viability, T/C: 66.1%
[31]
  viability, T/C: 79.3%
[32]
  viability, T/C: 62.7%
[33]
  viability, T/C: 82.8%
[34]
  viability, T/C: 99.5%
[35]
  viability, T/C: 82.5%
[36]
  viability, T/C: 84.8%

## COc1ccc([C@@H](O)c2cc(-c3ncnc4cc(N5CCOCC5)ccc34)c(F)cc2Cl)nn1 + CN(C)c1ccc(Nc2c3ccc(NC(=O)CCN4CCCC4)cc3nc3cc(NC(=O)CCN4CCCC4)ccc23)cc1
Second compound 0.0316 µM
  IC50: > 10 µM
Second compound 0.1 µM
  IC50: > 10 µM
Second compound 0.316 µM
  IC50: > 10 µM
Second compound 1 µM
  IC50: > 10 µM
Second compound 3.16 µM
  IC50: > 10 µM
Second compound 10 µM
  IC50: > 10 µM
[1]
  viability, T/C: 113%
[2]
  viability, T/C: 130%
[3]
  viability, T/C: 110%
[4]
  viability, T/C: 82.1%
[5]
  viability, T/C: 98%
[6]
  viability, T/C: 97.7%
[7]
  viability, T/C: 119%
[8]
  viability, T/C: 90.7%
[9]
  viability, T/C: 92.1%
[10]
  viability, T/C: 148%
[11]
  viability, T/C: 87.9%
[12]
  viability, T/C: 127%
[13]
  viability, T/C: 86.8%
[14]
  viability, T/C: 108%
[15]
  viability, T/C: 95.2%
[16]
  viability, T/C: 92.5%
[17]
  viability, T/C: 104%
[18]
  viability, T/C: 85.8%
[19]
  viability, T/C: 92.6%
[20]
  viability, T/C: 75.7%
[21]
  viability, T/C: 72%
[22]
  viability, T/C: 88.7%
[23]
  viability, T/C: 57.4%
[24]
  viability, T/C: 82.2%
[25]
  viability, T/C: 102%
[26]
  viability, T/C: 65.1%
[27]
  viability, T/C: 53.8%
[28]
  viability, T/C: 66.3%
[29]
  viability, T/C: 94.1%
[30]
  viability, T/C: 83.5%
[31]
  viability, T/C: 74.5%
[32]
  viability, T/C: 95.2%
[33]
  viability, T/C: 73.4%
[34]
  viability, T/C: 86.1%
[35]
  viability, T/C: 72.4%
[36]
  viability, T/C: 88.4%
